Results on five compounds are retold here after PMC6452685, “Lysyl-tRNA synthetase as a drug target in malaria and cryptosporidiosis” (Proceedings of the National Academy of Sciences of the …, 2019).

Broadly, the IC50 is the point on the concentration scale where inhibition reaches its midpoint. Lower therefore signals greater potency in that assay. For orientation: ΔTm means the change in melting temperature against a reference sample.

Bounds are passed on as bounds.

Series [1] deals with T1, CpKRS (Cryptosporidium parvum, UniProt Q5CR27). In words: CpKRS SAR assay, luciferase ATP consumption (Kinase-Glo). It counts as biochemical. As to the method: (§1) We produced recombinant PfKRS1 (77–583 and 80–583), CpKRS (46-end), and HsKRS (full-length) proteins and developed biochemical assays based on the luciferase ATP consumption assay (Kinase-Glo; Promega) ([16]), which was suitable for the high-throughput screening, and the pyrophosphate generation assay (EnzChek) ([17]) format for kinetic characterization of the enzymes. The activities of recombinant enzymes were analyzed by monitoring only the first stage of the aminoacylation reaction. This reaction is suitable for high-throughput screening campaigns and makes the reaction more amenable for steady-state kinetic studies. By using the EnzChek assay, which monitors the production of pyrophosphate (when coupled with pyrophosphatase), Km values were obtained for PfKRS1, CpKRS, and HsKRS for ATP and L-lysine (Table 1 and SI Appendix, Fig. S1 and Table S1). […] This may be due to structural differences (see below) between the active sites of the parasite and human enzymes. […]
T1 sequence (Q5CR27 entry or part of it): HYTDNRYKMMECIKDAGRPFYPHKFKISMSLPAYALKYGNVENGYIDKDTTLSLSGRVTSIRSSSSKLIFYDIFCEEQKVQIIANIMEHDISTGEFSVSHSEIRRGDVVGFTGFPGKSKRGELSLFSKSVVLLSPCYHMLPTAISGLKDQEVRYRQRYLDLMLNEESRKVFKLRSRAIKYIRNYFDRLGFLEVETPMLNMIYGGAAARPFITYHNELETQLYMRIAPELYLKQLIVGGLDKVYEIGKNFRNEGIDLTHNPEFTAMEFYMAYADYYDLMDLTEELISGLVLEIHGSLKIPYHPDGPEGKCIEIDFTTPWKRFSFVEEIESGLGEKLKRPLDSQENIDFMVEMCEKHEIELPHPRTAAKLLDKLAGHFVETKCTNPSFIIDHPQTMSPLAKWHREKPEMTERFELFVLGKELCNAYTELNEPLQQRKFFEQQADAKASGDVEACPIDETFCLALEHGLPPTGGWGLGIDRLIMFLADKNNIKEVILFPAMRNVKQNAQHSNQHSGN
(§2) 2.7 PfKR S1, CpKRS and HsKR S S AR Ass ay Usin g L ucife r ase ATP C onsumption ( Kinase Glo ®) Inhi bi ti on of KRS acti vity by cl adospori n and other compou nds was assayed i n t he buffered me di um.
(§3) Each as s ay w el l was compos ed of b uffer (as des cri bed i n Ta bl e S3), 10 µM l ysi ne and ei ther 8.1 nM PfKRS1, 8.1 nM CpKRS or 6.6 nM HsKRS. […] The react i on w a s initiated by the addition of 2 µM ATP. The plate was incubated with shaking at 90 rpm and 30°C for 120 mi n. […] Maximum and minimum signal controls were included in each reaction plate. […] Analysis and calculation of inhibitors IC50 values were performed using Graphpad® Prism software (GraphPad S oftware, San Diego, CA). […]

For series [2], the target named is T2, HsKRS (Homo sapiens, UniProt Q15046).
T2 construct: HsKRS (full-length) proteins; 6xHis (N); made in house; host or cells: E. coli Rosetta BL21(DE3), vector pAVA0421 (UW); template pET28a-KRS
T2 sequence (Q15046 whole entry): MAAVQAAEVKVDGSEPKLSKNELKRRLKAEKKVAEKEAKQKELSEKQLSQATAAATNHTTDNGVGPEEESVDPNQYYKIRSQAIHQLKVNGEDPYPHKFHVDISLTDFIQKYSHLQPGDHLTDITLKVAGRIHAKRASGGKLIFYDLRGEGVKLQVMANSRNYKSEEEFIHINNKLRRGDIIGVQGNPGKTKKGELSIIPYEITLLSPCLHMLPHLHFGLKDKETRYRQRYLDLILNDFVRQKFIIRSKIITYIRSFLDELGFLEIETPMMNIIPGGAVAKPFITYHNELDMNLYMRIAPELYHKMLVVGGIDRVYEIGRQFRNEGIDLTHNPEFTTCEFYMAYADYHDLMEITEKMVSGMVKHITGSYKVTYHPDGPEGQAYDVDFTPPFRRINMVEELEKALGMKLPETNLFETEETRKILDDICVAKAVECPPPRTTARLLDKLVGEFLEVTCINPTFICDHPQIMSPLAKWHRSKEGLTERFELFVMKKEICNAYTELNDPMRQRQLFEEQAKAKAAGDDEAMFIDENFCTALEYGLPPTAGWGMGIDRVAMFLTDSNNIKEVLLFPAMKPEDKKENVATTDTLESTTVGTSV
Briefly: HsKRS SAR assay, luciferase ATP consumption (Kinase-Glo). It counts as biochemical. As to the method: as §1, §2, §3
On the technique in general: In Kinase-Glo more light means more ATP remaining.

The target in series [3] is T1, CpKRS. In words: Recombinant KRS thermal shift assay, CpKRS. It counts as binding. Particulars: 40 µM inhibitor. As to the method: 2.9 Recombin ant KR S thermal shift assays ( UW)
Recombi nant PfKRS1, CpKRS, and HsKRS were di l u ted to 4 µM in assay buffe r c ontaining 20 mM Tris-HC l pH 8, 200 mM NaC l , 5 mM DTT, 5 mM MgC l2 and l i gands (1 mM lysi ne; 40 µM ATP; and 40 µM inhibitors) in various combinations. Ali quot s (10 µl) were added to a 96-well PCR plate and incubated at ambi ent temperature for 15 mi n. SYPRO® Ora n g e dye (I nv itrog en) was di l uted i n ass ay buffer to a 5x concent rat i on a nd 1 0 µl was added to t he P C R pl at e t o bri ng t he fi nal as s ay v ol ume t o 20 µl. The pl at e w as s eal ed and pul s e cent ri fug ed t o cons ol i dat e t he as s ay mix t ure and remov e ai r bu bbl es .
Us i ng a StepOne Pl us RT-PCR thermal cycler (Ap plied Biosystems) to monitor fluorescence at a n excitation/emission wavelength of 300/470-570 nm, the samples were heated from 25° C to 99° C at a ramp rate of .016° C/sec. Graphpa d® P rism software (GraphPad S oftware, San Diego, CA) was used to determine melting temperatures (Tm) us i ng Bol tzmann s i g moi dal analys is .
Table S3. Thermal shift data for compounds with P fKRS1, Cp KRS a nd Hs KRS.
Com poun d Eff ects o n Lys R S M elti ng Tem pe ratu re ( ∆Tm) […]

The nature of series [4]: Intrinsic clearance in mouse liver microsomes. It counts as in vitro ADME. The protocol: 4.4 Int r ins ic C le ar ance (CLi) experiments […]
HUE50H ). The procedure was carried out as reported prev i ous l y (15). […] Immediately, at time zero, then at 3, 6, 9, 15 and 30 min an aliquot ( 50 μl) o f the i ncubati on mi x ture was remov ed and mi x ed with acetonitrile (100 μl) contai ni ng i nternal s tandard to stop the reaction. […] XLfi t software (I DBS, Guildford UK) was used to cal cul ate the exponenti al decay and consequentl y the rate cons tant (ke-1) from the rati o of peak area of tes t compou nd to i nternal s tandard at each ti me poi nt .
The rate o f i ntri nsi c cl earance (CLi ) of each test compoun d was then cal cul ated usi ng the f ol l owi ng […]
CLi (ml /mi n/g li ver) = ke-1 x V x Microsomal protein yield […]
where V (ml/mg protein) is the incubation volume/mg protein added (0.5) and microsomal protein yield is taken as being 52.5 mg protein per g liver. Verapami l (0. 5 µ M ) w as us ed as a pos i t i v e cont rol to confirm ac ceptable assay performance. […]
Cryopreserved mouse (batch MC539) and huma n (batch HU E50H) hepatocytes were supplied by ThermoFi sher Sci enti fi c, Pai sl ey, UK and Xenotech, LLC, respectively. Cryopreserved hepatocytes were rapidly thawed in a pre-heat ed w at er bat h at 37 °C before ad di ng to 50 ml of pre-warmed CHRM medi a (ThermoFi sher Sci enti fi c, Paisley, UK) and mi xed gentl y. […] […] 5 mi l li on v i abl e cel l s /ml i n s uppl emented W ME. Onl y s us pens i ons whi ch ac hi ev ed >80% pos t-thaw viability were us ed i n ex peri ment s . […]
DMSO and 0.25 million cells/ml. […]
On the technique in general: Microsomes from liver hold many membrane-bound enzymes, among them those of drug oxidation.

Take `C[C@H]1CCC[C@H](C[C@H]2Cc3cc(O)cc(O)c3C(=O)O2)O1` [Compound 1, cladosporin, reference compound]: the IC50 in series [1] was 38 nM; in series [2] it was > 2000 nM. Moreover, the shift in melting temperature (ΔTm) at 40 µM in series [3] (ATP + Lysine) was 14 °C; in series [3] (ATP) it was 0.1 °C; in series [3] (Lysine) it was 19.5 °C; in series [3] (no substrate) it was -0.1 °C. In series [4], the “MLM CLi” value amounted to 20 mL/min/g.
On to `O=C(NCC1(O)CCCCC1)c1cc(=O)c2cc(F)ccc2o1` [Compound 4], for which the values for the IC50 in series [1] and in series [2] were 8 nM and 740 nM, respectively. Besides, the ΔTm at 40 µM in series [3] (ATP + Lysine) is 11.8 °C; in series [3] (ATP), 0 °C; in series [3] (Lysine), 18.4 °C; in series [3] (no substrate), -0.2 °C. The “MLM CLi” value in series [4] came out at 3 mL/min/g.
`O=C(NCC1(O)CCC(F)(F)CC1)c1cc(=O)c2cc(F)ccc2o1` [Compound 5]: the IC50 in series [1] came out at 130 nM; in series [2], 1800 nM. Also, the ΔTm at 40 µM is 13 °C in series [3] (ATP + Lysine), -0.2 °C in series [3] (ATP), 14.7 °C in series [3] (Lysine) and -0.5 °C in series [3] (no substrate). Moreover, in series [4], the “MLM CLi” value was determined as 1 mL/min/g. Moreover, the “Microsomal stability CLint” value in series [4] was 1 mL⋅min^−1⋅g^−1.
As for `O=C(NCC1CCCCC1)c1cc(=O)c2cc(F)ccc2o1` [Compound 3], the half-maximal inhibitory concentration (IC50) in series [1] was 39 nM; in series [2], > 2000 nM. Besides, the ΔTm at 40 µM in series [3] (ATP + Lysine) is 0.8 °C; in series [3] (ATP) it was 0.2 °C; in series [3] (Lysine), 1.2 °C; in series [3] (no substrate) it was -0.2 °C. For the same compound, the “MLM CLi” value in series [4] worked out at 23 mL/min/g.
In the case of `O=C(NCC1CCCCC1)c1cc(=O)c2ccccc2o1` [Compound 2], the IC50 in series [1] was 22 nM; in series [2], > 2000 nM. The thermal shift (ΔTm) at 40 µM in series [3] (ATP + Lysine) stood at 11.7 °C; in series [3] (ATP) it was 0.7 °C; in series [3] (Lysine) it was 19.3 °C; in series [3] (no substrate), 0 °C. The “MLM CLi” value in series [4] was > 50 mL/min/g. The “Microsomal stability CLint” value in series [4] was > 50 mL⋅min^−1⋅g^−1.
